# Experimental data from patent publication US9938235B2, “Compounds with neural protective effect, and preparation and use thereof” (GUANGZHOU MAGPIE PHARMACEUTICAL CO., LTD., priority 2014, dated 2018).
# How the values were obtained:
# [1] = system: TH neurons in SNpc area; experiment: TH neuron immunohistochemistry, SNpc area, MPTP-induced PD mice; assay type: in vivo, C57BL/6J mice
# Procedure: (§1) Forty of C57BL/6J mice (male, 6 to 7 week-old) were feed for 7 days to adapt to the environment. On the day 8, animal model was started to prepare. 20 mg/kg MPTP was given via intraperitoneal injection for the model group and drug group, the injection was made every 2 hours, for four times in total, and an acute PD model was established. The equivalent amount of saline was given to the normal control group. From the day 2 of model establishment, the compound MT-019 and the positive control drug Rasagiline (1 mg/kg) were given. The doses of MT-019 were 25, 75, 225 mg/kg, respectively. The drug was given once a day, and a equal amount of saline was given to the normal control group and the MPTP model group, for seven days consecutively. On the day 7 of drug administration, behavioral test is performed.
# After the above-mentioned animal model was set up and drug was given to the mice as described in Example 86, materials was taken at 12 hours after the last drug administration in the steps shown below: (1) With 10% chloral hydrate anesthesia in mice, the mice were fixed on an operating table, the chest thereof was quickly open; (2) […], […] the left ventricle, the right auricle was cut open, and a blood buffer was delivered to the heart from an infusion bottle with a volume of about 50 mL per mouse; (3) after the lavage fluid became colorless, the blood buffer was replaced with 4% paraformaldehyde solution in perfusion until the tail and limbs of the mice became stiff, wherein the infusion volume was about 100 mL per mouse; (4) the brain was taken by making the mice beheaded on a flat glass board, and redundant parts were carefully removed. The midbrain was placed and fixed in a centrifuge tube containing freshly prepared 4% paraformaldehydea. The samples were cut into paraffin sections through the process of dehydrating, transparent, paraffining and embedding steps. Each of the samples was cut with paraffin slicing machine into four microns slices. After fully unfold in water bath, the slices were put on glass plates and numbered. […]
# [2] = system: MPTP-induced abnormal behavior of mice of Parkinson's disease (PD) model; experiment: Behavioral test in MPTP-induced mice of Parkinson's disease (PD) model; assay type: in vivo, C57BL/6J mice; details: MT-019 25, 75, 225 mg/kg once a day for seven days; behavioral test on day 7 of administration
# Procedure: as §1
smiles,measurement,setting,value
C#CCNC(C)c1ccc(/C=[N+](\[O-])C(C)(C)C)c(OC(=O)N(C)CC)c1 (stereo not shown) [MT-019],protective effect to dopaminergic neurons compared with positive control Rasagiline,[1]; 25 mg/kg MT-019 versus Rasagiline 1 mg/kg,equivalent to that of the positive control drug Rasagiline 1 mg/kg
same,protective effect on SNpc area TH neurons (positive cell count in substantia nigra),"[1]; MT-019 25, 75, 225 mg/kg once a day for seven days, material taken 12 hours after last administration",had protective effect
same,dose dependence of protective effect on TH neurons,"[1]; doses 25, 75, 225 mg/kg",stronger effect was indicated with higher doses
same,recovery effect to MPTP-induced abnormal behavior,[2],had recory effect
